Laboratory results taken from patent EP4682145A1, “BENZOHETEROCYCLIC COMPOUND, AND PREPARATION METHOD THEREFOR AND USE THEREOF” (Cascade Pharmaceuticals, Inc., priority 2023, dated 2024).
pEC50: −log10 of the molar value.

Target: T1, human FFAR1 (GPR40) (Homo sapiens, UniProt O14842)
T1 construct: Flag; expressed in transfected cells; host or cells: HEK293T
Assay: NFAT-RE-based reporter gene activity assay (Dual-Glo luciferase) for GPR40 agonistic activity in co-transfected HEK293T cells
Assay type: cell-based
Conditions: 4-hour treatment; for Efficacy (%): class symbols
Summary of the method: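 Agonism read as NFAT-RE-driven firefly luciferase over Renilla control (Dual-Glo) after 4 h compound exposure, top concentration 1 µM, 10 half-log steps.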

T1 sequence (O14842 whole entry): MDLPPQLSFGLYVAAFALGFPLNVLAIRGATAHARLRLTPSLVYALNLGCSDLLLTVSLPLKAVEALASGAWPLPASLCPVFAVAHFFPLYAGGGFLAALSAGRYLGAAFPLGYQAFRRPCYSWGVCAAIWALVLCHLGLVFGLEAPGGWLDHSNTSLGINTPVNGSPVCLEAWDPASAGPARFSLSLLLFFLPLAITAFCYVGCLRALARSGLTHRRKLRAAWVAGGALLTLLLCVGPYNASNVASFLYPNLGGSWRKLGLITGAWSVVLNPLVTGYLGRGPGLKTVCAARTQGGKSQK

Compound | pEC50 | Efficacy (%)
COc1cccc(N2CCC(c3oc4cc([C@@H](CC(=O)O)C5CC5)ccc4c3C(C)OCc3cccs3)CC2)c1 (some centres unmarked) [Compound 421] | 6.30 to 7.00 | ††† (Efficacy (%) > 150)
CC(C)(C)c1ccc(-c2c(C3CCN(c4ccc5c(c4)OCC5)CC3)oc3cc(C(CC(=O)O)C4CC4)ccc23)cc1 (centres unmarked) [Compound 208] | 6.30 to 7.00 | ††† (Efficacy (%) > 150)
COc1cccc(N2CCC(c3oc4cc(C(CC(=O)O)C5CC5)ccc4c3-c3noc(C(C)(C)C)n3)CC2)c1 (centres unmarked) [Compound 122] | 7.00 to 8.00 | †† (150 ≥ Efficacy (%) > 100)
COc1ccc(F)c(N2CCC(c3oc4cc([C@@H](CC(=O)O)C5CC5)ccc4c3CCCC3CC3)CC2)c1 [Compound 391] | 6.30 to 7.00 | †† (150 ≥ Efficacy (%) > 100)
COc1ccc(F)c(N2CCC(c3oc4cc([C@@H](CC(=O)O)C5CC5)ccc4c3C(=O)Nc3cc(F)ccc3Br)CC2)c1 [Compound 342] | ≥ 8.00 | †† (150 ≥ Efficacy (%) > 100)
COc1ccc(F)c(N2CCC(c3oc4cc(C(CC(=O)O)C5CC5)ccc4c3C/C=C/C(C)C)CC2)c1 (centres unmarked) [Compound 371] | 6.30 to 7.00 | †† (150 ≥ Efficacy (%) > 100)
COc1cccc(N2CCC(c3oc4cc(C(CC(=O)O)C5CC5)ccc4c3C(=O)Nc3nc4ccccc4s3)CC2)c1 (centres unmarked) [Compound 297] | 6.30 to 7.00 | †† (150 ≥ Efficacy (%) > 100)
COc1ccc(F)c(N2CCC(c3oc4cc([C@@H](CC(=O)O)C5CC5)ccc4c3-c3ccc(C(C)O)cc3)CC2)c1 (some centres unmarked) [Compound 175] | < 6.30 | †† (150 ≥ Efficacy (%) > 100)
COc1cccc(N2CCC(c3oc4cc([C@@H](CC(=O)O)C5CC5)ccc4c3-c3nc(C(C)(C)C)cs3)CC2)c1 [Compound 110] | 7.00 to 8.00 | †† (150 ≥ Efficacy (%) > 100)
COc1ccc(F)c(N2CCC(c3oc4cc(C(CC(=O)O)C5CC5)c(F)cc4c3-c3ccc(C(C)(C)C)cc3)CC2)c1 (centres unmarked) [Compound 223] | 6.30 to 7.00 | † (100 ≥ Efficacy (%) > 50)
COc1cccc(N2CCC(c3oc4cc([C@@H](CC(=O)O)C5CC5)ccc4c3C(=O)Nc3cc(OC(F)(F)F)ccc3F)CC2)c1 [Compound 262] | > 8.00 | †† (150 ≥ Efficacy (%) > 100)
COc1cccc(N2CCC(c3oc4cc([C@@H](CC(=O)O)C5CC5)ccc4c3C(=O)Nc3cc(F)ccc3F)CC2)c1 [Compound 257] | ≥ 8.00 | ††† (Efficacy (%) > 150)
COc1ccnc(N2CCC(c3oc4cc(C(CC(=O)O)C5CC5)ccc4c3-c3ccc(C(C)(C)C)cc3)CC2)c1 (centres unmarked) [Compound 32] | 6.30 to 7.00 | †† (150 ≥ Efficacy (%) > 100)
COc1cccc(N2CCC(c3oc4cc(C(CC(=O)O)C5CC5)ccc4c3C(=O)Nc3cccc(N(C)C)c3)CC2)c1 (centres unmarked) [Compound 246] | 6.30 to 7.00 | †† (150 ≥ Efficacy (%) > 100)
COc1cccc(N2CCC(c3oc4cc(C(CC(=O)O)C5CC5)ccc4c3-c3nnc(C(C)(C)C)o3)CC2)c1 (centres unmarked) [Compound 124] | 7.00 to 8.00 | †† (150 ≥ Efficacy (%) > 100)
COc1cccc(N2CCC(c3oc4cc([C@@H](CC(=O)O)C5CC5)ccc4c3-c3cc4cccc(F)c4[nH]3)CC2)c1 [Compound 151] | 6.30 to 7.00 | †† (150 ≥ Efficacy (%) > 100)
COc1ccc(Cl)c(N2CCC(c3oc4cc(C(CC(=O)O)C5CC5)ccc4c3-c3cccc(C(C)(C)C)c3)CC2)c1 (centres unmarked) [Compound 203] | 6.30 to 7.00 | † (100 ≥ Efficacy (%) > 50)
COc1ccc(F)c(N2CCC(c3oc4cc(C(CC(=O)O)C5CC5)ccc4c3-c3ccc(N(C(C)=O)C(C)C)cc3)CC2)c1 (centres unmarked) [Compound 186] | 6.30 to 7.00 | † (100 ≥ Efficacy (%) > 50)
CC(C)(C)n1cc(-c2c(C3CCN(c4cccc(OC(F)F)c4)CC3)oc3cc(C(CC(=O)O)C4CC4)ccc23)cn1 (centres unmarked) [Compound 43] | 6.30 to 7.00 | †† (150 ≥ Efficacy (%) > 100)
